Results reported in article PMC6917776, “Discovery of a chemical probe for PRDM9” (Nature Communications, 2019).
Where two headings read alike, the source gives them in different places.

Assay: CelltiterGlo viability cell assay
Format: cell-based
Conditions: human; for viability at 3 day, 9.5 µM / viability at 3 day, 30 µM / viability at 6 day, 0.01 µM / viability at 6 day, 0.03 µM / viability at 6 day, 0.1 µM: SKMM2 cells (multiple myeloma line); for viability at 3 day, 0.01 µM / viability at 3 day, 0.03 µM: SKMM2 cells
In short: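 Luminescent ATP-based viability (CelltiterGlo) was measured after 3 or 6 days of treatment at increasing concentrations from 0.01 μM up to 30 μM, with values expressed relative to DMSO-treated cells.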

[1] = RPMI-8226 multiple myeloma cells, 8226, 3 day, read-out: viability Replicate 1
[2] = RPMI-8226 multiple myeloma cells, 8226, 3 day, read-out: viability Replicate 2
[3] = RPMI-8226 multiple myeloma cells, 8226, 3 day, read-out: viability Replicate 3
[4] = RPMI-8226 multiple myeloma cells, 8226, 3 day, read-out: viability Average
[5] = RPMI-8226 multiple myeloma cells, 8226, 6 day, read-out: viability Average
[6] = RPMI-8226 multiple myeloma cells, 8226, 6 day, read-out: viability Replicate 1
[7] = RPMI-8226 multiple myeloma cells, 8226, 6 day, read-out: viability Replicate 2
[8] = RPMI-8226 multiple myeloma cells, 8226, 6 day, read-out: viability Replicate 3
[9] = SKMM2, 3 day, read-out: viability Average
[10] = SKMM2, 3 day, read-out: viability Replicate 1
[11] = SKMM2, 3 day, read-out: viability Replicate 2
[12] = SKMM2, 3 day, read-out: viability Replicate 3
[13] = SKMM2, 6 day, read-out: viability Average
[14] = SKMM2, 6 day, read-out: viability Replicate 1
[15] = SKMM2, 6 day, read-out: viability Replicate 2
[16] = SKMM2, 6 day, read-out: viability Replicate 3
[17] = SKMM2 multiple myeloma cells, SKMM2, 3 day, read-out: viability Average
[18] = SKMM2 multiple myeloma cells, SKMM2, 3 day, read-out: viability Replicate 1
[19] = SKMM2 multiple myeloma cells, SKMM2, 3 day, read-out: viability Replicate 2
[20] = SKMM2 multiple myeloma cells, SKMM2, 3 day, read-out: viability Replicate 3
[21] = SKMM2 multiple myeloma cells, SKMM2, 6 day, read-out: viability Average
[22] = SKMM2 multiple myeloma cells, SKMM2, 6 day, read-out: viability Replicate 1
[23] = SKMM2 multiple myeloma cells, SKMM2, 6 day, read-out: viability Replicate 2
[24] = SKMM2 multiple myeloma cells, SKMM2, 6 day, read-out: viability Replicate 3

What does the source list for `COc1cc(OC)cc(-c2noc(N3CCN(C)C4(CCN(c5ccnc(C)c5)CC4)C3)n2)c1` [MRK-740]?
viability at 3 day, 0.3 µM [1]: 101%; viability at 3 day, 0.3 µM [2]: 101%; viability at 3 day, 0.3 µM [3]: 104%; viability at 3 day, 1 µM [4]: 104%; viability at 3 day, 1 µM [1]: 104%; viability at 3 day, 1 µM [2]: 102%; viability at 3 day, 1 µM [3]: 105%; viability at 3 day, 3 µM [4]: 106%; viability at 3 day, 3 µM [1]: 106%; viability at 3 day, 3 µM [2]: 105%; viability at 3 day, 3 µM [3]: 107%; viability at 6 day, 0.3 µM [5]: 98.9%; viability at 6 day, 0.3 µM [6]: 97.6%; viability at 6 day, 0.3 µM [7]: 98.6%; viability at 6 day, 0.3 µM [8]: 101%; viability at 6 day, 1 µM [5]: 97.3%; viability at 6 day, 1 µM [6]: 95%; viability at 6 day, 1 µM [7]: 99.7%; viability at 6 day, 1 µM [8]: 97.2%; viability at 6 day, 3 µM [5]: 92.6%; viability at 6 day, 3 µM [6]: 89.2%; viability at 6 day, 3 µM [7]: 96.8%; viability at 6 day, 3 µM [8]: 91.7%; viability at 6 day, 9.5 µM [5]: 82.7%; viability at 6 day, 9.5 µM [6]: 77%; viability at 6 day, 9.5 µM [7]: 85.6%; viability at 6 day, 9.5 µM [8]: 85.5%; viability at 6 day, 30 µM [5]: 70.7%; viability at 6 day, 30 µM [6]: 82%; viability at 6 day, 30 µM [7]: 56.4%; viability at 6 day, 30 µM [8]: 73.5%; viability at 3 day, 9.5 µM [9]: 93.2%; viability at 3 day, 9.5 µM [10]: 95.7%; viability at 3 day, 9.5 µM [11]: 89.2%; viability at 3 day, 9.5 µM [12]: 94.7%; viability at 3 day, 30 µM [9]: 67%; viability at 3 day, 30 µM [10]: 70.4%; viability at 3 day, 30 µM [11]: 59%; viability at 3 day, 30 µM [12]: 71.7%; viability at 6 day, 0.01 µM [13]: 99.7%; viability at 6 day, 0.01 µM [14]: 96.8%; viability at 6 day, 0.01 µM [15]: 103%; viability at 6 day, 0.01 µM [16]: 99.2%; viability at 6 day, 0.03 µM [13]: 98.1%; viability at 6 day, 0.03 µM [14]: 90.3%; viability at 6 day, 0.03 µM [15]: 105%; viability at 6 day, 0.03 µM [16]: 98.8%; viability at 6 day, 0.1 µM [13]: 96.7%; viability at 6 day, 0.1 µM [14]: 86.5%; viability at 6 day, 0.1 µM [15]: 107%; viability at 6 day, 0.1 µM [16]: 96.8%; viability at 3 day, 0.01 µM [9]: 101%; viability at 3 day, 0.01 µM [10]: 101%; viability at 3 day, 0.01 µM [11]: 99.6%; viability at 3 day, 0.01 µM [12]: 102%; viability at 3 day, 0.03 µM [9]: 101%; viability at 3 day, 0.03 µM [10]: 99.8%; viability at 3 day, 0.03 µM [11]: 99.2%; viability at 3 day, 0.03 µM [12]: 103%; viability at 3 day, 0.1 µM [17]: 103%; viability at 3 day, 0.1 µM [18]: 102%; viability at 3 day, 0.1 µM [19]: 100%; viability at 3 day, 0.1 µM [20]: 105%; viability at 3 day, 0.3 µM [17]: 101%; viability at 3 day, 0.3 µM [18]: 101%; viability at 3 day, 0.3 µM [19]: 98.7%; viability at 3 day, 0.3 µM [20]: 103%; viability at 3 day, 1 µM [17]: 101%; viability at 3 day, 1 µM [18]: 99.9%; viability at 3 day, 1 µM [19]: 99.6%; viability at 3 day, 1 µM [20]: 104%; viability at 3 day, 3 µM [17]: 99.8%; viability at 3 day, 3 µM [18]: 97.6%; viability at 3 day, 3 µM [19]: 98.3%; viability at 3 day, 3 µM [20]: 104%; viability at 6 day, 0.3 µM [21]: 98.1%; viability at 6 day, 0.3 µM [22]: 88.2%; viability at 6 day, 0.3 µM [23]: 106%; viability at 6 day, 0.3 µM [24]: 100%; viability at 6 day, 1 µM [21]: 96.5%; viability at 6 day, 1 µM [22]: 88%; viability at 6 day, 1 µM [23]: 105%; viability at 6 day, 1 µM [24]: 96.3%; viability at 6 day, 3 µM [21]: 96.8%; viability at 6 day, 3 µM [22]: 85.2%; viability at 6 day, 3 µM [23]: 105%; viability at 6 day, 3 µM [24]: 100%; viability at 6 day, 9.5 µM [21]: 94.5%; viability at 6 day, 9.5 µM [22]: 83.8%; viability at 6 day, 9.5 µM [23]: 102%; viability at 6 day, 9.5 µM [24]: 97.7%; viability at 6 day, 30 µM [21]: 71.5%; viability at 6 day, 30 µM [22]: 71.4%; viability at 6 day, 30 µM [23]: 66%; viability at 6 day, 30 µM [24]: 77.2%
